# Values of other authors as cited in publication PMC8359378 (British Journal of Clinical Pharmacology, 2021).
# B1: MAA868: fully human antibody which binds both FXI and FXIa (antibody, chains of the INN, looked up, V domains shown)
# VH: QVQLLESGGGLVQPGGSLRLSCAASGFTFSTAAMSWVRQAPGKGLEWVSGISGSGSSTYYADSVKGRFTISRDNSKNTLYLQMNSLRAEDTAVYYCARELSYLYSGYYFDYWGQGTLVTVSS
# VL: QSVLTQPPSASGTPGQRVTISCSGSSSNIGSNDVSWYQQLPGTAPKLLIYKNYNRPSGVPDRFSGSKSGTSASLAISGLQSEDEADYYCSAWDQRQFDVVFGGGTKLTVL
# B2: Osocimab: fully human IgG1 monoclonal antibody targeting coagulation factor XIa (antibody, chains of the INN, looked up, V domains shown)
# VH: EVQLLESGGGLVQPGGSLRLSCAASGFTFSQYGMDWVRQAPGKGLEWVSGIGPSGGSTVYADSVKGRFTISRDNSKNTLYLQMNSLRAEDTAVYYCTRGGPYYYYGMDVWGQGTTVTVSS
# VL: DIQMTQSPSSLSASVGDRVTITCQASQDISNYLNWYQQKPGKAPKLLIYDASNLETGVPSRFSGSGSGTDFTFTISSLQPEDIATYYCQQADSFPVTFGGGTKVEIK
# Columns and labels:
# [1] = intravenous infusion; cited from earlier work
# FXI and FXIa = settings: subcutaneous administration; cited from earlier work
# factor XIa activity = settings: cited from earlier work
molecule,measurement,setting,value
CN1CCN(c2cccc3c2CCN(C(=O)/C=C/c2c(-n4cnnn4)ccc(Cl)c2F)[C@@H]3C(=O)Nc2ccc(C(=O)O)cc2)C(=O)C1 [BMS‐962212],patients in the active treated groups reporting AEs,[1],17.6%
same,patients reporting infusion site pain or irritation,[1],5.9%
B1,effect on aPTT and FXI,FXI and FXIa,robust and sustained prolongation of aPTT and FXI suppression
B2,effect on apparent factor XIa activity and aPTT,factor XIa activity,reduced apparent factor XIa activity and prolonged aPTT in a dose‐dependent manner
